Results from patent publication US20070117835A1, “Methods and compositions for treating Huntington's disease” (priority 2005, published 2007).
“Also recorded” adds a separate entry of the source.

Tests used:
[1] = tested on: transgenic Drosophila engineered to express the mutant huntingtin protein in all their neurons; details: cited from earlier work
[2] = tested on: wildtype Drosophila fruit flies; test: Toxicity of dimebon in wild type Drosophila (eclosion number and timing); format: in vivo; details: FIG. 1
Method: Dimebon was evaluated for toxicity levels in wildtype Drosophila fruit flies. Dimebon was administered daily at doses ranging from 10 μM to 1 mM to explore its toxicity. An untreated control group was also studied in this experiment. The concentrations given were concentrations of dimebon in the food that animals drink/eat ad libitum. The food consisted of cornmeal (61.2 g), dextrose (129.4. g), yeast (32.4 g) and agar (9.3 g) in 1 liter of water. Concentrated compounds were added to melted agar food cooled to just above the point of setting (about 40° C.), mixed and dispensed.
About 500 wild type Drosophila eggs were collected on grape juice plates for 20 hours, washed with distilled water and transferred 100 per vial to grow at 25 degrees C. The adult progeny were scored after eclosing (emerging from the pupal case) beginning 10 days later to assess developmental delay and toxicity. The criteria used for toxicity were the number (%) of animals that eclose and the time of the eclosing. For example, fewer animals may emerge from the pupal case if a drug is toxic or the same number of animals may eclose but more slowly than the untreated control group.
The toxicity test employed five concentrations (10 μM, 30 μM, 100 μM, 300 μM, 1 mM) plus an untreated control and was repeated with five sets of flies. […]

[3] = tested on: transgenic Drosophila engineered to express the mutant huntingtin protein in all their neurons; test: Inhibition of mutant huntingtin-induced neurodegeneration of photoreceptor neurons (pseudopupil method); format: in vivo; details: for rescue of photoreceptor neurons compared to untreated controls: FIG. 2; for suppression of photoreceptor neuron degeneration, retest: FIG. 3
Method: Dimebon was administered to one group of transgenic Drosophila engineered to express the mutant huntingtin protein in all their neurons. This was accomplished by cloning a foreign gene into transposable p-element DNA vectors under control of a yeast upstream activator sequence that is activated by the yeast GAL4 transcription factor. These promoter fusions were injected into fly embryos to produce transgenic animals. The foreign gene is silent until crossed to another transgenic strain of flies expressing the GAL4 gene in a tissue specific manner. The Elav>Gal4 which expresses the transgene in all neurons from birth until death was used in the experiments described.
For compound testing, 20-30 Httex1pQ93 virgins were mated to elav>Gal4 males and eggs were collected for about 20 hours at 25° C. and dispensed into vials (expected about 70% lethality from Htt effects). Upon eclosion, at least 80, 0-8 hour old flies were harvested and place on drug-containing food (20 eclosed adults per vial) and scored when 7 days old. Inhibitor-containing food was prepared just before tester flies began to emerge.
The two types of transgenic animals were crossed in order to collect enough closely matched aged controls to study. The crossed aged-matched adults (about 20 per dosing group) were placed on drug-containing food for 7 days. Animals were transferred to fresh food daily to minimize any effects caused by instability of the compounds. Survival was scored daily. The average number of photoreceptors at day zero was determined by scoring 7-10 of the newly eclosed tester siblings within six hours of eclosing. This established the baseline of degeneration at the time of exposure to drug. At day 7, animals were sacrificed and the number of photoreceptor neurons surviving was counted. […] For pseudopupil analysis, flies were decapitated and the heads are mounted in a drop of nail polish on a microscopic slide. The head was then covered with immersion oil and light is projected through the eye of the fly using a Nikon EFD-3/Optiphot-2 compound microscope with a 50× oil objective.

[4] = tested on: transgenic Drosophila engineered to express the mutant huntingtin protein in all their neurons; test: Climbing assay (motor function) in Drosophila model of Huntington's disease; format: in vivo
Method: The motor function of Drosophila obtained as described in the examples above was assessed by exploiting the strong negative geotropism of flies to climb upwards when they are tapped to the bottom of a vial. See, Le Bourg and Lint (1992) Hypergravity and aging in Drosophila melanogaster. 4. […] activity. Gerontology 38, 59-64. Animals were placed in a graduated vessel (e.g., a measuring cylinder). The distance climbed in 10 seconds was measured for each animal over 3 trials with a 5 minute rest period. In a separate experiment using tall thin plastic tubes rather than glass vials, the distance climbed in 30 seconds was also measured. Animals were scored for outcome without knowledge of treatment group. Flies were tested for functional rescue using a behavior assay (climbing assay) where the distance climbed was measured. […] In this assay, climbing was scored blind and each animal was given 3 trials that were then averaged. The climbing of 7 day old animals reared on 0, 10, 100 or 1,000 μM containing food was compared as was the climbing of animals on the day of eclosion. Two trials were performed. In the first, the ability to climb in large glass vials was monitored over 10 seconds. […] The second trial was similar to the first except that animals were tested in tall thin plastic tubes for climbing over 30 seconds. […] The data from the two independent climbing trials are plotted as individual data points in FIGS. 6A and 6B. A higher statistical power (e.g., 0.8) given the observed standard deviations and differences of the means may be achieved by doubling the size of the experiment for the highest concentration and increasing about 10 fold for the lower concentrations.

Row | Structure (SMILES) | rescue of photoreceptor neurons (historical positive control) [1] | timing of emergence slowed ([2]; 1 mM dose) | toxicity (number of animals that eclose and time of eclosing) ([2]; 10 to 300 μM in the food, below 1 mM, dihydrochloride) | rescue of photoreceptor neurons compared to untreated controls ([3]; 10 μM, 7 days) | suppression of photoreceptor neuron degeneration, retest ([3]; 100 μM vs zero drug controls, dihydrochloride) | rescue of photoreceptor neurons compared to untreated controls ([3]; 100 μM, 7 days on drug-containing food) | rescue of photoreceptor neurons compared to untreated controls ([3]; 1 mM, 7 days) | previously measured optimum concentration for photoreceptor rescue ([3]; concentration in food) | protection of photoreceptors, dose dependence ([3]; day 7, pseudopupil scoring) | suppression of photoreceptor neuron degeneration, retest ([3]; higher doses (300 or 1,000 μM) vs zero drug controls) | climbing behavior, distance climbed in 10 seconds ([4]; 1 mM (1000 μM), 7 day old animals, glass vials, FIG. 5, dihydrochloride) | raw climbing data, FIG. 6 panel A ([4]; 1 mM vs D7ND (Day 7 no drug), legend says measured over 30 seconds) | climbing behavior, distance climbed in 30 seconds ([4]; 10, 100 or 1,000 μM, 7 day old animals, tall thin plastic tubes)
1 | C[C@@H](N)[C@H]1CC[C@H](C(=O)Nc2ccncc2)CC1 [Y-27632] | strongly rescuing | – | – | – | – | – | – | – | – | – | – | – | –
2 | Cc1ccc2c(c1)c1c(n2CCc2ccc(C)nc2)CCN(C)C1.Cl.Cl [dimebon, 2,8-dimethyl-5-(2-(6-methyl-3-pyridyl)-ethyl)-2,3,4,5-tetrahydro-1H-pyrido[4,3-b]indole dihydrochloride] | – | approximately 1 day | generally well tolerated; also recorded: no significant toxicity | lesser but still apparent rescue of neurons | significant improvement; also recorded: significant rescue | statistically significant (p=0.0014) rescue of neurons | still appeared to cause neuronal rescue, but to a lesser extent than the 100 μM or 10 μM dimebon doses | 100 µM | protect photoreceptors in a dose-dependant manner | no statistically demonstrable improvement | significant difference between the control and 1000 μM; also recorded: statistically significant improvement in climbing | statistical difference between D7ND and 1 mM | no statistically demonstrable difference between treated and control groups
